According to patent US11986513B2, “GAL(1-15) and analogues thereof for use in the prevention and/or treatment of alcohol-related effects and disorders” (UNIVERSIDAD DE MÁLAGA, priority 2017, dated 2024):

What was measured:
Assay type in all cases: in vivo, rat
rats [1] = assay: Two-bottle choice test for voluntary ethanol consumption and preference; conditions: for preference for ethanol compared with GAL / ethanol intake compared with GAL: 3 nmol i.c.v. each
Method: Male Sprague—Dawley rats (body weight 225-250 g, age 8 weeks) were obtained from Criffa and maintained in a humidity-controlled and temperature-controlled (20-22° C.) room. The rats in the two-bottle choice paradigm were during the entire protocol maintained on a 12-hour reversed light/dark cycle (lights off at 10 am) whereas the other rats were kept on 12-hour light/dark cycle. The animals had free access to food pellets and tap water. All animal experimentation was conducted in accordance with the University of Malaga Guidelines for the Care and Use of Laboratory Animals.
This protocol has been used previously (Diaz-Cabiale et al., 2011; Millon et al., 2015). Briefly, the rats were anaesthetised intraperitoneally with Equitesin (3.3 ml/kg body weight) and stereotaxically implanted with a unilateral chronic 22-gauge stainless steel guide cannula into the right lateral cerebral ventricle using the following coordinates: 1.4 mm lateral and 1 mm posterior to bregma and 3.6 mm below the surface of the skull (Paxinos, 1986). After surgery, animals were individually housed and allowed a recovery period of 7 days. The injections in the lateral ventricle were performed using a 26-gauge stainless steel injection cannula connected via PE-10 tubing to a Hamilton syringe. The total volume was 5 μl per injection, and the infusion time was 1 minute.
The solutions were prepared freshly, and the peptides were dissolved in artificial cerebrospinal fluid (with a composition of […], […] NaH2CO3, […] KCl, 0.5 nM KH2PO4, 1.2 nM CaCl2, 1.8 nM MgCl2, 0.5 nM Na2SO4, and 5.8 nM D-glucose, pH 7.4). GAL was obtained from NeoMPS, Strasbourg, France; GAL(1-15) and the GALR2 receptor antagonist M871 were obtained from Tocris Bioscience, Bristol, UK.
The two-bottle choice test was used to determine the voluntary ethanol consumption of rats as described previously (Castilla-Ortega et al., 2016). Briefly, after 7 days of water consumption (both bottles), a choice between water and increasing concentrations of ethanol [3, 6, and 10% (v/v)] was offered for 7 days each. A choice between 10% ethanol (v/v) and water was offered for several days until reaching a stable baseline value. Water and ethanol consumption were recorded daily. The position of the bottles was changed every day to avoid preference for location. Water intake (g/kg), ethanol intake (g/kg), and preference ([ethanol consumption/total fluid [water plus ethanol] consumption×100]) were calculated for each animal. Throughout the experiment, evaporation and spillage estimates were calculated using an empty cage with two bottles, one containing water and the other containing the appropriate ethanol solution. In the experiments, a choice between ethanol (10%) and water was offered.
Three sets of experiments were conducted in the two bottle choice paradigm. In the first set of experiments, a dose-response curve of GAL(1-15) was performed. For this, groups of rats received i.c.v. 1 nmol or 3 nmol of GAL(1-15), or vehicle 2, 14, and 24 hours before the measurements. In the second set of experiments, the effects of the two-bottle choice test for GAL and GAL(1-15) were compared. For this, groups of rats received i.c.v. 3 nmol of GAL, 3 nmol of GAL(1-15), or vehicle, 2, 14, and 24 hours before the test. In the last set of experiments, the role of GALR2 was studied; for this, groups of rats received i.c.v. 3 nmol of GAL(1-15) combined with 3 nmol of GALR2 […] before the measurements.

C-Fos = C-Fos mRNA expression in the corpus striatum during voluntary ethanol consumption (RT-PCR); conditions: 3 nmol i.c.v., 2 hours after administration, two-bottle choice rats, versus vehicle/EtOH
Method: (§1) Groups of rats from the two-bottle choice paradigm were killed by decapitation 2 hours after a single i.c.v. administration of 3 nmol of GAL(1-15) or vehicle, and the corpus striatum was dissected and frozen on solid CO2 until mRNA expression analysis.

Rab5 = Rab5 mRNA expression in the corpus striatum during voluntary ethanol consumption (RT-PCR); conditions: 3 nmol i.c.v., 2 hours after administration, two-bottle choice rats, versus vehicle/EtOH
Method: as §1

GALR1 = GALR1 mRNA expression in the corpus striatum during voluntary ethanol consumption (RT-PCR); conditions: 3 nmol i.c.v., 2 hours after administration, two-bottle choice rats, versus vehicle/EtOH
Method: as §1

GALR2 = GALR2 mRNA expression in the corpus striatum during voluntary ethanol consumption (RT-PCR); conditions: 3 nmol i.c.v., 2 hours after administration, two-bottle choice rats, versus vehicle/EtOH (p=0.101)
Method: as §1

rats [2] = assay: Locomotor activity (open field), ethanol-reduced locomotion; conditions: GAL(1-15) 3 nmol i.c.v. 20 min before test
Method: In this experiment, the effects of GAL(1-15) (3 nmol) on ethanol-reduced locomotion (1.75 g/kg; intraperitoneal (i.p.)) (Vallof et al., 2016) were investigated. Locomotor activity was recorded in rat open field (100×100×50 cm) where animals were individually placed and left to freely explore. Their behaviour was recorded over a 30-minute period by ceiling-mounted video camera, and locomotor activity was analysed using the video-tracking software EthovisionXT. After each assay, all surfaces were cleaned with a paper towel and 70% ethanol solution. For locomotor activity, total distance travelled (cm) and mean speed (cm/s) were recorded. Groups of rats were administered via i.c.v. GAL(1-15) or vehicle 20 minutes before the test; i.p. ethanol (1.75 g/kg) or saline solution administration was performed 5 minutes before the test.

rats [3] = assay: Ethanol self-administration (operant model)
Method: The use of operant models as substance self-administration models are widely used for performing motivation or hedonic studies. In these models, the animal has to “work” to obtain the reinforcing substance by pressing a lever, which allows the investigator to observe the animal's interest in the substance, as well as to learn the effect of the substance as a reward for the animal (Leeman et al., 2010). The method is performed according to earlier protocols (Alén et al., 2009) with some modifications. The test consists of a two-week training phase in which rats are kept the first 2 to 4 days with a water restriction to facilitate the learning of the task of pressing the lever to obtain the reinforcement. Animals are exposed daily to 30-minute sessions in self-administration boxes (Letica instruments). The boxes are equipped with two retractable levers located on both sides of a liquid dispenser (0.1 mL) positioned in the centre of the box panel. […] Once the training period is over, where all the animals have proven to have learned the task, daily sessions continue to be performed until establishing a stable baseline. Then training begins for ethanol consumption, and for this purpose a gradual increase in ethanol concentration (from 2% to 10%) is performed at the same time as a gradual reduction in saccharin concentration (from 0.16% to 0%) over several days, where after this period the animals become accustomed consuming 10% ethanol. After several sessions to establish a stable baseline, the animals are subjected to placement of a chronic intracerebroventricular cannula, leaving them for several days after this intervention to again establish a stable ethanol consumption baseline. Then the test is performed, consisting of a 30-minute session after administration of the different treatments, recording the number of active lever presses, as well as the number of rewards (FIG. 7).
Two sets of ethanol self-administration experiments were performed. In the first set of experiments, a dose-response curve of GAL(1-15) was performed. For this, groups of rats received i.c.v. GAL(1-15) at doses of 0.3, 1, and 3 nmol, or vehicle. In the second set of experiments, the effect of GAL 3 nmol and GAL(1-15) 3 nmol in ethanol self-administration were compared.

[4] = 3 nmol i.c.v. each, 2, 14, 24 hours
[5] = i.c.v., any dose (1 or 3 nmol), any time point

Substance: Gly-Trp-Thr-Leu-Asn-Ser-Ala-Gly-Tyr-Leu-Leu-Gly-Pro-His-Ala (GWTLNSAGYLLGPHA; General formula for GAL 1-15) [GAL(1-15)]
- preference for ethanol (rats [1]; 1 nmol i.c.v.): no effects
- ethanol intake (rats [1]; 1 nmol i.c.v., all the time points analysed (2, 14, 24 hours)): no effect
- food intake, difference between GAL and GAL(1-15) (rats [1]; [4]): No differences were found
- water intake, difference between GAL and GAL(1-15) (rats [1]; [4]): No differences were found
- preference for ethanol compared with GAL (rats [1]; 2 hours after administration): decreased
- ethanol intake compared with GAL (rats [1]; 2 hours after injection): significantly decreased
- ethanol intake compared with GAL (rats [1]; 14 hours after injection): significantly decreased
- ethanol intake compared with GAL (rats [1]; 24 hours after injection): significantly decreased
- preference for ethanol compared with GAL (rats [1]; 24 hours later): maintained
- decrease in the preference for ethanol (rats [1]; 3 nmol i.c.v., 2 hours after administration): 90%
- ethanol intake (rats [1]; 3 nmol i.c.v., 2 hours after administration, 10% ethanol vs water, versus vehicle): significantly decreased
- ethanol intake (rats [1]; 3 nmol i.c.v., 14 hours after administration, 10% ethanol vs water, versus vehicle): significantly decreased
- preference for ethanol (decrease) (rats [1]; 3 nmol i.c.v., 24 hours): maintained
- ethanol intake (rats [1]; 3 nmol i.c.v., 24 hours after administration, 10% ethanol vs water, versus vehicle): significantly decreased
- food intake (rats [1]; [5]): no differences were found
- water intake (rats [1]; [5]): no differences were found
- mRNA levels of C-Fos in corpus striatum (C-Fos): significant increase
- mRNA levels of Rab5 in corpus striatum (Rab5): significant increase
- GALR1 mRNA levels in corpus striatum (GALR1): significant decrease
- GALR2 expression in corpus striatum (GALR2): slight reduction
- distance travelled (rats [2]; rats given i.p. ethanol 1.75 g/kg): decreased
- distance travelled (rats [2]; rats given systemic saline solution): no such effects were observed
- mean speed (rats [2]; rats systemically treated with ethanol 1.75 g/kg): decreased
- number of reinforcements in ethanol self-administration (rats [3]; 0.3 nmol i.c.v. 15 min before the test): no effect
- number of ethanol reinforcements (rats [3]; 1 nmol i.c.v. 15 min before the test, versus control): significant decrease
- number of ethanol reinforcements (reduction) (rats [3]; 3 nmol i.c.v. 15 min before the test, versus control): even more pronounced
- number of ethanol reinforcements compared with GAL (rats [3]; 3 nmol i.c.v. each, 15 min before the test): significantly reduces
